The assay deals with FP receptor (Homo sapiens (Human), UniProt P43088). Briefly: In vitro test of inhibition of human FP receptor activity (PGF2α-induced calcium flux in FP-expressing CHEM1 cells). The conditions noted are these: PGF2α 2 nM, some mean values of multiple determinations. The format is cell-based. The method, then:
B-1. In Vitro Test of Inhibition of Human FP Receptor Activity
For the characterization of test substances in respect of FP antagonism, PGF2α-induced calcium flux in FP-expressing CHEM1 cells (Millipore, HTS093C) was used.
10 μl of the prediluted substance solution are added to the Fluo-8-laden cells and incubated at 37° C., 5% CO2 for 10 minutes. The FP receptor is activated by adding 40 μl of 2 nM (final concentration) PGF2α in calcium-free Tyrode, 2 mM CaCl2, 0.002% SmartBlock, and the calcium flux is determined by measuring the fluorescence at ex. 470 nm/[…].
Table 1 below lists the IC50 values from this assay for individual working examples of the invention (some as mean values from multiple independent individual determinations): […]

The structures appear in SMILES notation.

The results in this text go back to patent publication US11149018B2, “Substituted N-arylethyl-2-aminoquinoline-4-carboxamides and use thereof” (Bayer Aktiengesellschaft, priority 2017, dated 2021).

As usually defined, the IC50 is the midpoint of a concentration-inhibition curve.

Sequence of FP receptor (P43088 whole entry): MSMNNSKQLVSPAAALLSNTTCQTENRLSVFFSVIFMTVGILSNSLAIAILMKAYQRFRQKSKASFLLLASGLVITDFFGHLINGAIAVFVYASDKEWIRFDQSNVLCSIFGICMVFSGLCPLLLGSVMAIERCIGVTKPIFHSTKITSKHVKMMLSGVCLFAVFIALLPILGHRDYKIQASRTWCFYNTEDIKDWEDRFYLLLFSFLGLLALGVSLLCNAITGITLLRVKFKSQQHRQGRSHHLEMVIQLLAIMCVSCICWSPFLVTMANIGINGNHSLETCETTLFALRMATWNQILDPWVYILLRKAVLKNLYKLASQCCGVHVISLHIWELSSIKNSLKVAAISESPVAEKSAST

Turning to `Cc1c(N2CC=CCO2)nc2ccc(Br)cc2c1C(=O)NCC(CCC(=O)O)c1ccccc1Cl` (racemic) [Example 77, (+/−)-5-({[6-Bromo-2-(3,6-dihydro-2H-1,2-oxazin-2-yl)-3-methylquinolin-4-yl]carbonyl}amino)-4-(2-chlorophenyl)pentanoic acid], the IC50 turned out to be 0.066 µM.

On to `Cc1c(N2CCc3ccccc3C2)nc2ccc(Br)cc2c1C(=O)NCC(CCC(=O)O)c1ccccc1Cl` (racemic) [Example 84, (+/−)-5-({[6-Bromo-2-(3,4-dihydroisoquinolin-2(1H)-yl)-3-methylquinolin-4-yl]carbonyl}amino)-4-(2-chlorophenyl)pentanoic acid], for which the IC50 was 0.028 µM.

Consider `Cc1c(N2CC3CCCCC3C2)nc2ccc(Br)cc2c1C(=O)NCC(CCC(=O)O)c1ccccc1Cl` (racemic) [Example 86, (+/−)-5-({[6-Bromo-3-methyl-2-(octahydro-2H-isoindol-2-yl)quinolin-4-yl]carbonyl}amino)-4-(2-chlorophenyl)pentanoic acid], for which the concentration for half-maximal inhibition (IC50) was 0.33 µM.

On to `Cc1c(N2CCS(=O)(=O)CC2)nc2ccc(Br)cc2c1C(=O)NCC(CCC(=O)O)c1ccccc1Cl` (racemic) [Example 87, (+/−)-5-({[6-Bromo-2-(1,1-dioxidothiomorpholin-4-yl)-3-methylquinolin-4-yl]carbonyl}amino)-4-(2-chlorophenyl)pentanoic acid], for which the IC50 was 0.55 µM.

For `Cc1c(N2CNC(=O)C2)nc2ccc(Br)cc2c1C(=O)NCC(CCC(=O)O)c1ccccc1Cl` (racemic) [Example 88, (+/−)-5-({[6-Bromo-3-methyl-2-(4-oxoimidazolidin-1-yl)quinolin-4-yl]carbonyl}amino)-4-(2-chlorophenyl)pentanoic acid], the half-maximal inhibitory concentration (IC50) is 0.88 µM.

As to `Cc1c(N2CCCOCC2)nc2ccc(Br)cc2c1C(=O)NCC(CCC(=O)O)c1ccccc1Cl` (racemic) [Example 90, (+/−)-5-({[6-Bromo-3-methyl-2-(1,4-oxazepan-4-yl)quinolin-4-yl]carbonyl}amino)-4-(2-chlorophenyl)pentanoic acid], the IC50 amounted to 0.059 µM.

As for `COC1CN(c2nc3ccc(Br)cc3c(C(=O)NCC(CCC(=O)O)c3ccccc3Cl)c2C)C1` (racemic) [Example 92, (+/−)-5-({[6-Bromo-2-(3-methoxyazetidin-1-yl)-3-methylquinolin-4-yl]carbonyl}amino)-4-(2-chlorophenyl)pentanoic acid], the half-maximal inhibitory concentration (IC50) worked out at 0.39 µM.

`Cc1c(NCCc2ccccc2)nc2ccc(Br)cc2c1C(=O)NCC(CCC(=O)O)c1ccccc1Cl` (racemic) [Example 94, (+/−)-5-[({6-Bromo-3-methyl-2-[(2-phenylethyl)amino]quinolin-4-yl}carbonyl)amino]-4-(2-chlorophenyl)pentanoic acid]: the half-maximal inhibitory concentration (IC50) worked out at 0.015 µM.

Regarding `Cc1c(N(C)CCc2ccccc2)nc2ccc(Br)cc2c1C(=O)NCC(CCC(=O)O)c1ccccc1Cl` (racemic) [Example 95, (+/−)-5-[({6-Bromo-3-methyl-2-[methyl(2-phenylethyl)amino]quinolin-4-yl}carbonyl)amino]-4-(2-chlorophenyl)pentanoic acid], the concentration for half-maximal inhibition (IC50) came to 0.065 µM.

On to `Cc1c(NCc2ccccc2)nc2ccc(Br)cc2c1C(=O)NCC(CCC(=O)O)c1ccccc1Cl` (racemic) [Example 96, (+/−)-5-({[2-(Benzylamino)-6-bromo-3-methylquinolin-4-yl]carbonyl}amino)-4-(2-chlorophenyl)pentanoic acid], for which the 50% inhibitory concentration (IC50) is 0.95 µM.

As to `Cc1c(NC2CCC2)nc2ccc(Br)cc2c1C(=O)NCC(CCC(=O)O)c1ccccc1Cl` (racemic) [Example 97, (+/−)-5-({[6-Bromo-2-(cyclobutylamino)-3-methylquinolin-4-yl]carbonyl}amino)-4-(2-chlorophenyl)pentanoic acid], the IC50 stood at 0.53 µM.

On to `Cc1c(NCCC(F)(F)F)nc2ccc(Br)cc2c1C(=O)NCC(CCC(=O)O)c1ccccc1Cl` (racemic) [Example 98, (+/−)-5-[({6-Bromo-3-methyl-2-[(3,3,3-trifluoropropyl)amino]quinolin-4-yl}carbonyl)amino]-4-(2-chlorophenyl)pentanoic acid], for which the 50% inhibitory concentration (IC50) was 0.53 µM.

Regarding `Cc1c(NCC2CCCCC2)nc2ccc(Br)cc2c1C(=O)NCC(CCC(=O)O)c1ccccc1Cl` (racemic) [Example 99, (+/−)-5-[({6-Bromo-2-[(cyclohexylmethyl)amino]-3-methylquinolin-4-yl}carbonyl)amino]-4-(2-chlorophenyl)pentanoic acid], the IC50 is 0.5 µM.

For the compound `Cc1c(NCC2CC2)nc2ccc(Br)cc2c1C(=O)NCC(CCC(=O)O)c1ccccc1Cl` (racemic) [Example 100, (+/−)-5-[({6-Bromo-2-[(cyclopropylmethyl)amino]-3-methylquinolin-4-yl}carbonyl)amino]-4-(2-chlorophenyl)pentanoic acid], the IC50 amounted to 0.34 µM.

`CCCCNc1nc2ccc(Br)cc2c(C(=O)NCC(CCC(=O)O)c2ccccc2Cl)c1C` (racemic) [Example 101, (+/−)-5-({[6-Bromo-2-(butylamino)-3-methylquinolin-4-yl]carbonyl}amino)-4-(2-chlorophenyl)pentanoic acid]: the IC50 is 0.45 µM.

Consider `Cc1c(NCC(C)C)nc2ccc(Br)cc2c1C(=O)NCC(CCC(=O)O)c1ccccc1Cl` (racemic) [Example 102, (+/−)-5-({[6-Bromo-2-(isobutylamino)-3-methylquinolin-4-yl]carbonyl}amino)-4-(2-chlorophenyl)pentanoic acid], for which the IC50 is 0.25 µM.

`Cc1c(NC2CCCC2)nc2ccc(Br)cc2c1C(=O)NCC(CCC(=O)O)c1ccccc1Cl` (racemic) [Example 103, (+/−)-5-({[6-Bromo-2-(cyclopentylamino)-3-methylquinolin-4-yl]carbonyl}amino)-4-(2-chlorophenyl)pentanoic acid]: the 50% inhibitory concentration (IC50) was found to be 0.34 µM.

In the case of `COCCNc1nc2ccc(Br)cc2c(C(=O)NCC(CCC(=O)O)c2ccccc2Cl)c1C` (racemic) [Example 104, (+/−)-5-[({6-Bromo-2-[(2-methoxyethyl)amino]-3-methylquinolin-4-yl}carbonyl)amino]-4-(2-chlorophenyl)pentanoic acid], the half-maximal inhibitory concentration (IC50) was determined as 0.41 µM.

For the compound `CCNc1nc2ccc(Br)cc2c(C(=O)NCC(CCC(=O)O)c2ccccc2Cl)c1C` (racemic) [Example 109, (+/−)-5-({[6-Bromo-2-(ethylamino)-3-methylquinolin-4-yl]carbonyl}amino)-4-(2-chlorophenyl)pentanoic acid], the IC50 amounted to 0.86 µM.

Regarding `Cc1c(N2CCCC3(CC3)C2)nc2ccc(Br)cc2c1C(=O)NCC(CCC(=O)O)c1ccccc1Cl` (racemic) [Example 110, (+/−)-5-({[2-(5-Azaspiro[2.5]oct-5-yl)-6-bromo-3-methylquinolin-4-yl]carbonyl}amino)-4-(2-chlorophenyl)pentanoic acid], the IC50 was determined as 0.024 µM.

Consider `Cc1c(N2CCCCC2)nc2ccc(Br)cc2c1C(=O)NCC(CCC(=O)O)c1ccccc1C(F)(F)F` (racemic) [Example 111, (+/−)-5-({[6-Bromo-3-methyl-2-(piperidin-1-yl)quinolin-4-yl]carbonyl}amino)-4-[2-(trifluoromethyl)phenyl]pentanoic acid], for which the IC50 was 0.0064 µM.

On to `Cc1c(N2CCCC2)nc2ccc(Br)cc2c1C(=O)NCC(CCC(=O)O)c1ccccc1C(F)(F)F` (racemic) [Example 114, (+/−)-5-({[6-Bromo-3-methyl-2-(pyrrolidin-1-yl)quinolin-4-yl]carbonyl}amino)-4-[2-(trifluoromethyl)phenyl]pentanoic acid], for which the IC50 was found to be 0.014 µM.

Consider `Cc1c(N2CCCC(F)(F)C2)nc2ccc(Br)cc2c1C(=O)NCC(CCC(=O)O)c1ccccc1C(F)(F)F` (racemic) [Example 117, (+/−)-5-({[6-Bromo-2-(3,3-difluoropiperidin-1-yl)-3-methylquinolin-4-yl]carbonyl}amino)-4-[2-(trifluoromethyl)phenyl]pentanoic acid], for which the half-maximal inhibitory concentration (IC50) is 0.016 µM.

In the case of `Cc1c(N2CCCCCC2)nc2ccc(Br)cc2c1C(=O)NCC(CCC(=O)O)c1ccccc1C(F)(F)F` (racemic) [Example 120, (+/−)-5-({[2-(Azepan-1-yl)-6-bromo-3-methylquinolin-4-yl]carbonyl}amino)-4-[2-(trifluoromethyl)phenyl]pentanoic acid], the IC50 was determined as 0.011 µM.

As to `Cc1c(N2CCCCC2)nc2ccc(Br)cc2c1C(=O)NCC(CCC(=O)O)c1ccccc1OC(F)(F)F` (racemic) [Example 126, (+/−)-5-({[6-Bromo-3-methyl-2-(piperidin-1-yl)quinolin-4-yl]carbonyl}amino)-4-[2-(trifluoromethoxy)phenyl]pentanoic acid], the IC50 is 0.0017 µM.

As for `Cc1c(N2CCCC2)nc2ccc(Br)cc2c1C(=O)NCC(CCC(=O)O)c1ccccc1OC(F)(F)F` (racemic) [Example 129, (+/−)-5-({[6-Bromo-3-methyl-2-(pyrrolidin-1-yl)quinolin-4-yl]carbonyl}amino)-4-[2-(trifluoromethoxy)phenyl]pentanoic acid], the concentration for half-maximal inhibition (IC50) was 0.0061 µM.

As for `Cc1c(N2CCCCCC2)nc2ccc(Br)cc2c1C(=O)NCC(CCC(=O)O)c1ccccc1OC(F)(F)F` (racemic) [Example 135, (+/−)-5-({[2-(Azepan-1-yl)-6-bromo-3-methylquinolin-4-yl]carbonyl}amino)-4-[2-(trifluoromethoxy)phenyl]pentanoic acid], the 50% inhibitory concentration (IC50) is 0.003 µM.

Consider `Cc1c(N2CCCCC2)nc2ccc(Br)cc2c1C(=O)NCC(CCC(=O)O)c1cccc(F)c1Cl` (racemic) [Example 141, (+/−)-5-({[6-Bromo-3-methyl-2-(piperidin-1-yl)quinolin-4-yl]carbonyl}amino)-4-(2-chloro-3-fluorophenyl)pentanoic acid], for which the IC50 worked out at 0.0058 µM.
